melting point [°C]	Compound
147 to 149	COc1nc2ccccc2nc1NC(=O)N1CCN(c2ccccc2C(C)C)CC1
178 to 181	CC(C)(C)OC(=O)N(CC(=O)OCN1C(=O)CCC(N2C(=O)c3ccccc3C2=O)C1=O)C(=O)CN (stereo not given)
124 to 125	C=COCCOc1ccc(C=CC(=O)C=Cc2ccc(OCCOC=C)cc2)cc1
202 to 203	Nc1cccc(N2C(=O)CCCC2c2ccc(Cl)c(Cl)c2)c1 (stereo not given)
225 to 228	O=C(O)Cc1c(C(=O)C2CCC2)[nH]c2cc(Cl)ccc12
167 to 170	CC1(C)Oc2ccc(C#N)cc2C(C(=O)Nc2ccccc2)=C1O
114 to 118	CCOC(=O)NC(=S)C1=C(N2CCOCC2)CCC1
184 to 185	NC(=O)N1C(=O)C(=C(OC(=O)c2ccccn2)c2cccs2)c2cc(F)c(Cl)cc21
234 to 236	CC1(C)NC(=O)CSC1=NO
43 to 46	COC(=O)c1cc(Br)ncc1F
> 300	CC(C)(C)c1cnc(C(=O)Nc2cc(-c3cc(Nc4ccc(-c5ccncc5)nn4)c(=O)[nH]n3)ccc2F)cn1
193	N#CC1=C(C2CCCC2)Nc2n[nH]cc2C1c1cccc2nonc12 (stereo not given)
218 to 219	CC(=O)c1c(C)c(NC(=O)CC(C)(C)C)c(C)c2c1SCC2c1ccc(C(C)C)cc1 (stereo not given)
159 to 160	CC1CCN(CC(=O)N2c3ccccc3N(C)S(=O)(=O)c3ccccc32)CC1
144	O=C(c1ccc(F)cc1)C1CCN(CCn2c(-c3ccccc3)nc3ccccc3c2=O)CC1
166	CC(=O)NCc1cncn1C1c2ccccc2CCC1(C)C (stereo not given)
175	Nc1c(Cl)cc(C(=O)NC2CCN(CC3CCCO3)CC2)c2c1CCO2 (stereo not given)
148 to 151	O=C(NC1CCCc2c(O)cccc21)c1cccc(Cl)c1O (stereo not given)
179 to 180	CCC(=O)c1ccc2c(c1)C(C(=O)Nc1cccc(C(=O)Nc3ccccc3)c1)C(=O)N2CC (stereo not given)
52.3 to 53.3	COc1ccc(C(=O)CC(=O)C(C)(C)C)cc1OC
227 to 231	Brc1c(OCc2nnn[nH]2)ccc2cc(-c3csc(-c4ccccc4)n3)ccc12
204 to 206	CC(C)n1nc(-c2ncc(N)nc2-c2ccccc2)ccc1=O
248 to 249	O=C(O)c1cc(=O)cc(-c2cccc3ccccc23)o1
171	Cc1cn(C2CC(ON)C(CO[Si](C)(C)C(C)(C)C)O2)c(=O)[nH]c1=O (stereo not given)
159 to 170	Cc1cccc(NC(=O)NC2N=C(C3CCCCC3)c3cccc(C)c3N(CC(=O)C3CCCCC3)C2=O)c1 (stereo not given)

melting point [°C]	Compound
195 to 196	Nn1cc(I)c(=O)[nH]c1=O
83 to 84.5	CN1C(=O)Cc2ccccc21
184	CN(C)Cc1ncc2c(c1O)COC2(c1ccccc1)c1ccc(F)cc1 (stereo not given)
249 to 252	CCCC(=O)c1cc2c(=O)c(C(=O)O)c[nH]c2cc1C
158	CCOC(=O)c1ccc2nc(CC3CCN(c4ccc(Cl)nn4)CC3)sc2c1
> 330	Cc1cn(-c2cc3c(cc2C(F)(F)F)[nH]c(=O)c2n[nH]c(=O)n23)c(C)n1
137 to 139	O=C(NOCC(O)CN1CCCCC1)Nc1cccc([N+](=O)[O-])c1 (stereo not given)
104 to 107	CON=C(C#N)c1ccc(Cl)c(CNC(=O)OC)c1
120 to 128	CCN1C(=O)CCCc2cc(Nc3ncc(Cl)c(N[C@@H]4CCCC[C@H]4NS(C)(=O)=O)n3)c(OC)cc21
68 to 70	CC1(C2N=NC(=O)O2)CC1 (stereo not given)
59 to 60	CCN(CC)CCOc1cccc2c1c1cccc(F)c1n2Cc1ccc(F)cc1
228 to 230	CN1CCN(C(=O)[C@H]2CC[C@H](c3[nH]nc4c3C(=O)c3c(NC(=O)NN5CCOCC5)cccc3-4)CC2)CC1
> 300	CS(=O)(=O)Nc1cc(O)c2c(c1)C(=O)c1cccc(O)c1C2=O
208	Nc1cncnc1NCCN1CCC(Nc2nc3ccccc3n2Cc2ccc(F)cc2)CC1
118 to 119	O=C(Cc1ccc2ccn(C3CCN(CCc4ccc(F)cc4)CC3)c2c1)NCC1OCCO1
147 to 149	COc1ccc(COc2cc(NC(C)=O)c(Cl)cc2C(=O)CCCCCl)cc1
210	Cc1ccc(S(=O)(=O)NC(=O)OCCc2ccc(-n3c(CCC(=O)N4CCCCC4)nc4cc(C(F)(F)F)c(Cl)cc43)cc2)cc1
188	Cc1c(-c2ccc(OS(=O)(=O)NN(C)C)cc2)[nH]c2nccnc12
176 to 178	Cc1ccc(Cl)cc1N1CCCN(C(C)C)C1=S
> 300	CCC1=C(C#N)C(c2cccc(C#N)c2Cl)c2c[nH]nc2N1 (stereo not given)
68 to 70	Fc1c2c(nc3cc(Cl)ccc13)CCCC2
120 to 122	Cc1ccc(-c2ccc(C(=O)CBr)cc2)cc1
190	CC1CCN(c2nc(Nc3cc(C4CC4)n[nH]3)c3ccccc3n2)CC1
141 to 143	CCCC(=O)c1cc(C(=O)C(=O)OC(=O)C(=O)c2cc(C(=O)CCC)c(C)cc2NCC)c(NCC)cc1C
202	Cc1nc(C)c(C(=O)Nc2cc(Oc3ccc4nc(NC(=O)C5CC5)cn4n3)ccc2F)o1

melting point [°C]	Compound
116 to 118	OC(Cc1ccc(F)cc1)(Cn1cncn1)c1ccccc1 (stereo not given)
160 to 163	CN(CCSc1ccc(NS(C)(=O)=O)cc1)CCc1ccc(NS(C)(=O)=O)cc1
113 to 115	CC(Oc1ccc(Oc2ccc(F)cc2)cc1)(C(=O)O)c1ccccc1 (stereo not given)
38	N#Cc1cc(N)ccc1N(CCO)CCO
146 to 148	COCCOC(=O)C1=C(C)NN=C(C(=O)OC(C)C)C1c1cccc([N+](=O)[O-])c1 (stereo not given)
112	CCOC(=O)c1ccc(N(C)C)nn1
168 to 170	O=C(CCCN1CCCCC1)c1ccc2c(c1)C(=O)c1cc(C(=O)CCCN3CCCCC3)ccc1-2
87	Cc1c(F)c(Oc2cccc(C(F)(F)F)c2)nc(-c2ccc(C(F)(F)F)cc2)c1F
154 to 155	CCCCn1nnc(NCc2ccc(-c3ccccc3-c3nnn[nH]3)cc2)c1C(=O)O
151 to 153	CCOC(=O)c1cn(C(C)CCl)c2cc(Cl)c(F)cc2c1=O (stereo not given)
165	CC(CC(=O)c1ccc2c(c1)C(C)(C)CCC2(C)C)C(=O)O (stereo not given)
98 to 99	CSc1ccc(-c2cc(Br)nn2-c2ccc(F)cc2)cc1
196 to 200	CCOC(=O)c1c2n(c3cc(N4CCN(CC(C)=O)CC4)c(F)cc3c1=O)C(C)S2 (stereo not given)
173	COC1CC(NC(C)=O)C(OC(=O)c2ccccc2)C(CBr)O1 (stereo not given)
171 to 172	O=C(O)CCc1oc(-n2cccn2)nc1-c1ccc(Cl)cc1
210 to 214	O=C(O)COc1cccc2c1CCc1sc(S(=O)(=O)CC=Cc3ccccc3)nc1-2
122 to 124	O=C(CN1C(=O)CSC1=O)c1ccc(Cl)cc1
45.5 to 46.5	CCCCCCCCCCCCCCc1ccc(O)c(CC)c1
140 to 141	c1ccc(CCCC2CCN(Cc3nc4ccccc4[nH]3)CC2)cc1
114 to 116	O=C(Oc1ccc(CS(=O)(=O)Cc2ccc(OC(=O)C3CC3)c([N+](=O)[O-])c2)cc1[N+](=O)[O-])C1CC1
181 to 184	NS(=O)(=O)c1ccc(NC(=O)NCCCCCCNC(=O)n2cc(F)c(=O)[nH]c2=O)cc1
160 to 162	Cc1ccc(NC(=O)Nc2cccc(C(F)(F)F)c2)cc1/C=C/n1cnc2c(NC3CC3)ncnc21
136	CC(C)CNc1nc2cc(Cl)c(Cl)cc2n1[C@H]1O[C@@H](CO)[C@H](O)[C@@H]1O
177 to 178	O=C(O)Cn1cc(Cc2nc3c(F)c(F)cc(F)c3s2)c2ccccc21
141 to 142	O=[N+]([O-])c1c(Cl)cccc1CS(=O)(=O)c1ccccc1

melting point [°C]	Compound
112 to 113	Cn1nc(CBr)cc1C(=O)NCCc1ccccc1
141 to 142	COc1nc(SC)cnc1NS(=O)(=O)c1cccc(Cl)c1Cl
250 to 253	O=c1[nH]ccc2c1ccc1[nH]cc(CCN(Cc3ccccc3)Cc3ccccc3)c12
244 to 245	Nc1ccc(S(=O)(=O)c2cc(Br)nc(N3CCOCC3)c2)cc1
107 to 108	COc1ccc(C(=O)C2=C(c3ccccc3)c3ccc(OC)cc3CC2)cc1
97 to 98	CC[C@@]12CC(=O)[C@](O)(c3ccccc3)C[C@H]1CCc1cc(O)ccc12
237 to 240	C=C(C)CNc1cc(C(=O)O)cc(S(N)(=O)=O)c1Sc1ccc(N)cc1
115 to 117	COC(=O)c1n[nH]cc1[N+](=O)[O-]
131 to 132	CCOC(=O)Cc1[nH]c(C(=O)OC(C)(C)C)c(CCc2cccc(Cl)c2)c1C(=O)OCC
129 to 131	COC(=O)c1cc2cc(OC)ccc2cc1O
163 to 165	CCCN1CC(C)=CC2=C1N1CN(OC)C=C1N=N2
194 to 195	CCCSc1ncc(CO)n1Cc1ccc(-c2ccccc2C(=O)O)cc1
206	CS(=O)(=O)C(C#N)=Cc1c(Cl)n(Cc2ccccc2)c2ccccc12
235 to 237	C=C(Br)c1cc(O)cc2nc(-c3ccc(O)cc3F)oc12
102	CCNC(=O)c1ccc(F)c(Cl)c1
156 to 158	N=C(Nc1ccc(F)cc1)Nc1nc(-c2ccccc2)cs1
255	COc1cc(O)ccc1-c1nc2cnccc2[nH]1
93 to 95	CCOC(=O)Cn1c(-c2ccccc2)nc2cccnc21
154 to 155	C=CCOc1cc(C=CC(=O)O)ccc1OC(C)=O
253 to 254	N#Cc1c(-c2cccc(C(=O)N3CCOCC3)c2)cc(-c2ccccc2O)nc1NC(=O)c1cccs1
144	CC(=O)Nc1sccc1C(=O)c1ccccc1F
130 to 131	CCOC(=O)C1=C(C)Nc2ccnc(OC(C)C)c2C1c1ccccc1C(F)(F)F (stereo not given)
155 to 156	CC(C)NC(=O)c1c(C(=O)O)ccc(Cl)c1Cl
221 to 222	COc1cc(Cc2cnc(N)nc2N)cc2c1OC(C)(C)C=C2Cl
169 to 171	CCCc1nc(C(O)CCC)c(C)[nH]1 (stereo not given)

From a melting point compilation (Tetko et al.; mined from patent text by program, amines drawn as free bases though some values may be those of a salt)
